Values belong to the molecule of their own block, whether it stands above or below them.
How the values were obtained:
[1] = one week, cited from earlier work
[2] = Solvent rinsing and tape peel testing of coatings (IR/DRIFT); assay type: physicochemical; details: aerosol in THF, room temperature, no heating
Description: Coupons which had been treated were rinsed several times with deposition solvent and, where appropriate, ethanol and/or water, to remove soluble residues. A piece of tape (e.g., 3M red Scotch™ “650” tape or Scotch Masking Tape #234; 37 oz./in. adhesion to steel) was adhered to the derivatized surface of the solvent washed foil sample and quickly removed. The freshly “peeled” coupon was then analyzed again by DRIFT spectroscopy.
Samples of coupons of aluminum, iron, and titanium, prepared as described above, were treated with an aerosol of n-octadecanephosphonic acid in tetrahydrofuron (THF) at room temperature in the ambient environment. Following the spray application of the acid solution the solvent was allowed to evaporate at ambient temperature and the derivatized surfaces of the coupons were analyzed by FTIR. The surfaces where then washed with THF and analyzed both before and after a peel test using red Scotch™ “650” tape.

[3] = pH 7; cited from earlier work
[4] = Quartz crystal microbalance (QCM) surface coverage / loading of phosphonate coatings on Ti; assay type: physicochemical
[5] = Hydrolytic stability of DANSYL-RGDC labelled diphosphonate SAM by fluorimetry; assay type: physicochemical; details: after about 96 hours at pH 7.5, cleaved at about pH 12
Description: To further test the stability of diphosphonate SAMs towards aqueous conditions, fluorimetry was employed. Coupons of Ti-mPEG were then exposed to vapor of […] to yield the surface-bound complex. The complex modified coupons were then treated with a solution of 6-maleimidohexanoic acid in THF and were then rinsed thoroughly, and analyzed via IR (vCO≈1705 cm^−1). The coupons were then placed in a solution of N-(5-dimethylamino-1-naphthyl-sulfonyl)-RGDC (DANSYL-RGDC), then rinsed thoroughly, and probed via IR (vpeptide-CO≈1650-1690 cm^−1). The DANSYL group provides a fluorescent “tag” with which to monitor hydrolysis of the surface.
Fluorophore-labeled coupons were immersed in water at about pH 7.5. Fluorescence intensity of the supernatant was measured over about 90 hours; a calibration curve of DANSYL-RGDC was also prepared to relate concentrations in solution with fluorescence intensity, according to Beer's Law. […] Fluorescence intensity in the supernatant was measured against a second calibration curve of DANSYL-RGDC at about pH 12, and the solution concentration was determined by Beer's Law. […] At this point, the DANSYL-RGDC remaining on the surface was measured by exposing the coupon to strong alkaline (about pH 12) for about 3 hours to cleave any remaining zirconium complex species from the SAM. […]

αvβ3 integrins = αvβ3 integrins (Homo sapiens, UniProt P05106+P06756); details: cited from earlier work
αvβ3 integrins, sequence (P06756 31-1048): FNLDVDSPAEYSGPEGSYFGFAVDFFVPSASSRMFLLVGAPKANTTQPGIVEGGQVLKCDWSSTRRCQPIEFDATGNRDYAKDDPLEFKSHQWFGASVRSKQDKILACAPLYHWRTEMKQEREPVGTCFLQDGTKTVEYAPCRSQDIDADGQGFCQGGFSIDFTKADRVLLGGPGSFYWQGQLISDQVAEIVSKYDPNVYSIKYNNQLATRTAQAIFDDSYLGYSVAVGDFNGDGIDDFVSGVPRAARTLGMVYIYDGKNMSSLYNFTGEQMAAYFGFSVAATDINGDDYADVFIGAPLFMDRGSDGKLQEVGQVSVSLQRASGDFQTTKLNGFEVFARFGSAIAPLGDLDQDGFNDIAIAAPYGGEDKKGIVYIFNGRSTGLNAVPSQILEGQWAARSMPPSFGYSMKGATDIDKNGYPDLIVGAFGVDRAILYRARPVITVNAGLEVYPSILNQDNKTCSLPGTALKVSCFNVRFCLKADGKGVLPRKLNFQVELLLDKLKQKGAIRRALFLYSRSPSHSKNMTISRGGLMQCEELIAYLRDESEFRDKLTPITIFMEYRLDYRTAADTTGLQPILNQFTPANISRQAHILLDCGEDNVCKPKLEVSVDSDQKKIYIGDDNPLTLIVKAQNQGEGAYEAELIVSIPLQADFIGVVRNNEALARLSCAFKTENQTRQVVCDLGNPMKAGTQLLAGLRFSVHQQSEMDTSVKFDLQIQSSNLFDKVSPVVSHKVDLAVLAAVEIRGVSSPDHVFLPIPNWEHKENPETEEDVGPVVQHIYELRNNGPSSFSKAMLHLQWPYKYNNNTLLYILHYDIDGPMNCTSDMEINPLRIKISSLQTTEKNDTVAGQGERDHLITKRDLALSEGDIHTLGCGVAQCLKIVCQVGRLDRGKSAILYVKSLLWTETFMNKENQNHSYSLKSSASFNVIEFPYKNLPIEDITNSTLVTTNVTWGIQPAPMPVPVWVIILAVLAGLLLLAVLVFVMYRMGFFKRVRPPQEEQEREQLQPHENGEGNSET
αvβ3 integrins, sequence (P05106 27-788): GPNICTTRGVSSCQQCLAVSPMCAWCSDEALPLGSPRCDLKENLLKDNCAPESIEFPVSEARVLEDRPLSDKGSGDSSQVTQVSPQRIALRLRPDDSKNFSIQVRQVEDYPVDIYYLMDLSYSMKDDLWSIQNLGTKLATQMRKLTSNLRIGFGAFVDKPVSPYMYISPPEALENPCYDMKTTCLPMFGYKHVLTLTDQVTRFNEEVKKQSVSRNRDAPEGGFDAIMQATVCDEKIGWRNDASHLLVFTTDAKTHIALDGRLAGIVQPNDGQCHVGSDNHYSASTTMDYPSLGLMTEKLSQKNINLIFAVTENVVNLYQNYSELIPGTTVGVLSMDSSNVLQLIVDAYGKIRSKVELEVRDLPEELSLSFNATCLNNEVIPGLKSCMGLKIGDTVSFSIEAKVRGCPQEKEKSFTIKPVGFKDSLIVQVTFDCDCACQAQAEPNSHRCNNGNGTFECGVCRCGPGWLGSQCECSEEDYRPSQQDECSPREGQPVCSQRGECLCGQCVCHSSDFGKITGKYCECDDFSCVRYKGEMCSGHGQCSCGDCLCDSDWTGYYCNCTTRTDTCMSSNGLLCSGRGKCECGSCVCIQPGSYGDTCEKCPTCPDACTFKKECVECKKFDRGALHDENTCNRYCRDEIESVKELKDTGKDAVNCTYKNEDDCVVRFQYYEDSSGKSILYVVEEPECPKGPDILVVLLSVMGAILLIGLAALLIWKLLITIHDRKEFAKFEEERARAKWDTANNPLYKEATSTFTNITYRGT

Molecule: CCCCCCCCCCCCCCCCCC[Si](C)(C)Cl [octadecyldimethylchlorosilane]
Surface hydrolysis of coated powders (in words) [1]: almost total surface hydrolysis

Molecule: CCCCCCCCCCCCCCCCCCP(=O)(O)O [octadecylphosphonic acid]
Persistence of phosphonic acid layer after washing and peel test, aluminum native oxide [2]: survives washing, but not peel testing | Persistence of phosphonic acid layer after washing and peel test, iron native oxide [2]: survives both washing and peel testing | Persistence of phosphonic acid layer after washing, titanium native oxide [2]: readily removed by washing with the deposition solvent | Bound material lost from the surface of TiO2 ([1]; neutral pH): 16% | Bound material lost from the surface of ZrO2 ([1]; neutral pH): 5%

Molecule: (cyclo)-1,6 acetyl-CRGDF-penicillamine-NH2
Stability relative to linear RGDF [3]: 30 times

Molecule: Arg-Gly-Asp-Cys (RGDC; printed: Arg-Gly-Asp-Cys) [cysteine modified fibronectin cell attachment peptide]
RGDC loadings on SAMs of 11-hydroxyphosphonate on Ti [4]: ~0.52 nmol/cm^2

Surface loading of DANSYL-RGDC stable at about pH 7.5 [5]: about 0.58 nmol/cm^2
Molecule: N-(5-dimethylamino-1-naphthyl-sulfonyl)-RGDC [DANSYL-RGDC]

Molecule: cyclic (RGDFV-)
Specificity towards αvβ3 integrins relative to linear GRGDSPK (αvβ3 integrins): over 100 times

Reference: patent US8993117B2, “Devices with multiple surface functionality” (The Trustees of Princeton University, priority 2005, dated 2015)
